Measured values as given in PubChem BioAssay AID2060501 (Molecular Pharmacology Branch, DTP, NCI, 2025).

Tested on: 282377-053-R-J1-PDC complex spheroids, viability
Test: Anticancer human tumor 282377-053-R-J1-PDC patient-derived colon adenocarcinoma cell line growth inhibition [GQUAD]
Settings: for IC50: curve of first compound; for viability, T/C: stronger effect = lower value
Excerpt: DNA G-quadruplex Stabilizer Agents in Combinations in Complex Spheroids
A high-throughput screen of multi-cell type tumor spheroids was designed to identify active combinations of DNA G-quadruplex stabilizer agents and targeted small molecules. Complex spheroids include a stromal component modeled by human endothelial cells (HUVEC) and fibroblasts modeled by human mesenchymal stem cells (MSCs). The concentration ranges selected for each drug and investigational agent were based upon clinically achievable concentrations if the clinical Cmax of the agent was known.
Compounds. The drugs and investigational agents: pidnarulex (CX-5461; NSC782164), APTO-253 (NSC789042), BRACO-19 (NSC847499), peposertib (NSC802822), ceralasertib (NSC780249), elimusertib (NSC800525), camonsertib (NSC841442), AZD-1390 (NSC803789), olaparib (NSC753686), talazoparib (NSC767125), ART-558 (NSC835418), sotorasib (NSC818433), MRTX-1133 (NSC836407), SN-38 (NSC673596), topotecan (NSC609699), etoposide (NSC141540), doxorubicin (NSC123127), gemcitabine (NSC613327), 5-fluorouracil (NSC19893), paclitaxel (NSC125973), vemurafenib (NSC761431), panobinostat (NSC761190), R-306465 (JNJ-16241199; NSC773264), adavosertib (NSC754352), TP-3654 (NSC805149), carboplatin (NSC241240), KSQ-4279 (NSC840948), and staurosporine (NSC755774) were obtained from the National Cancer Institute (NCI) Developmental Therapeutics Program Chemical Repository (34). The FDA-approved anticancer drug set is available from the NCI Developmental Therapeutics Program. […] The stock solutions were prepared in dimethyl sulfoxide (DMSO, Sigma-Aldrich, St. Louis, MO, cat. D2650) at 800-fold the tested concentration and stored at -70 degrees C prior to their use. All drugs and investigational agents were tested over a range starting from a high concentration at or near the clinical Cmax and decreasing in half-log increments. If the clinical Cmax for an agent had not been determined, the highest concentration tested was 10 microM.
2.3 Cell Culture. All cells were maintained in an incubator at 37 degrees C and 5% CO2 with 95% humidity. The PDC lines were cultured according to standard operating procedures established by the NCI PDMR. All PDCs were thawed and cultured in Matrigel-coated flasks prepared with a working solution of 1X Ham's F-12 nutrient mix, without supplementation (Invitrogen, cat. 11765054), 100 U/mL penicillin-streptomycin (Invitrogen, cat. 15140122), and 2.5% Matrigel (Corning Inc., cat. 354248) for the first three passages. The 857933-349-R-J2-PDC line was cultured in 6C/Colon 1B media, which includes advanced DMEM/F-12 (Thermo Fisher Scientific, cat. 12634028), 10 mM HEPES (Thermo Fisher Scientific, cat. 15630080), 1X GlutaMAX supplement (Thermo Fisher Scientific, cat. 35050061), 0.1 mg/mL primocin (InvivoGen, cat. ant-pm-2), 10% defined fetal bovine serum, heat inactivated (HyClone Laboratories Inc., cat. SH30070.03HI), 50% L-WRN conditioned media (ATCC, cat. CRL-3276), 1.25 mM N-Acetyl-L-cysteine (Sigma-Aldrich, cat. A9165), 10 mM nicotinamide (Sigma-Aldrich, cat. N0636), 1X B-27 supplement (Thermo Fisher Scientific, cat. 17504044), 1X N-2 supplement (Thermo Fisher Scientific, cat. 17502048), 10 microM Y-27632 dihydrochloride (Tocris Bioscience, cat. 1254), and 50 ng/mL human EGF recombinant protein (Thermo Fisher Scientific, cat. PHG0311). The 485176-168-R4-J1-PDC line was cultured in Panc media, which includes all 6C/Colon 1B media components plus 100 ng/mL human FGF-10 (Thermo Fisher Scientific, cat. 100-26), 500 nM SB-431542 (Selleckchem, cat. S1067), and gastrin (Tocris, cat. 3006).
[…]
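Further: spheroids exposed to compounds for 7 days before readout.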
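Wherever viability, T/C is given: percent of vehicle DMSO control viability with 100% = untreated-like growth.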

`CC(C)n1c(=O)n(C)c2cnc3cc(F)c(-c4ccc(OCCCN5CCCCC5)nc4)cc3c21` + CN(C)c1ccc(Nc2c3ccc(NC(=O)CCN4CCCC4)cc3nc3cc(NC(=O)CCN4CCCC4)ccc23)cc1 gave an IC50 (second compound 0.0316 µM) greater than 10 µM, an IC50 (second compound 0.1 µM) greater than 10 µM and an IC50 (second compound 0.316 µM) greater than 10 µM. The IC50 (second compound 1 µM) was greater than 10 µM, the IC50 (second compound 3.16 µM) was greater than 10 µM and the IC50 (second compound 10 µM) was greater than 10 µM. For the same compound, the viability, T/C (second compound 0.0316 µM, first compound 0.0316 µM) was 97.9%, the viability, T/C (second compound 0.0316 µM, first compound 0.1 µM) was 108% and the viability, T/C (second compound 0.0316 µM, first compound 0.316 µM) was 102%. For the same compound, the viability, T/C (second compound 0.0316 µM, first compound 1 µM) was 106%, the viability, T/C (second compound 0.0316 µM, first compound 3.16 µM) was 104% and the viability, T/C (second compound 0.0316 µM, first compound 10 µM) was 101%. It also gave a viability, T/C (second compound 0.1 µM, first compound 0.0316 µM) of 92.5%, a viability, T/C (second compound 0.1 µM, first compound 0.1 µM) of 101% and a viability, T/C (second compound 0.1 µM, first compound 0.316 µM) of 89.5%. For the same compound, the viability, T/C (second compound 0.1 µM, first compound 1 µM) was 108%, the viability, T/C (second compound 0.1 µM, first compound 3.16 µM) was 89.4% and the viability, T/C (second compound 0.1 µM, first compound 10 µM) was 90.9%. It also gave a viability, T/C (second compound 0.316 µM, first compound 0.0316 µM) of 100%, a viability, T/C (second compound 0.316 µM, first compound 0.1 µM) of 107% and a viability, T/C (second compound 0.316 µM, first compound 0.316 µM) of 108%. For the same compound, the viability, T/C (second compound 0.316 µM, first compound 1 µM) was 103%, the viability, T/C (second compound 0.316 µM, first compound 3.16 µM) was 88.3% and the viability, T/C (second compound 0.316 µM, first compound 10 µM) was 101%. For the same compound, the viability, T/C (second compound 1 µM, first compound 0.0316 µM) was 106%, the viability, T/C (second compound 1 µM, first compound 0.1 µM) was 96.8% and the viability, T/C (second compound 1 µM, first compound 0.316 µM) was 99.7%. For the same compound, the viability, T/C (second compound 1 µM, first compound 1 µM) was 94.4%, the viability, T/C (second compound 1 µM, first compound 3.16 µM) was 105% and the viability, T/C (second compound 1 µM, first compound 10 µM) was 91%. The viability, T/C (second compound 3.16 µM, first compound 0.0316 µM) was 113%, the viability, T/C (second compound 3.16 µM, first compound 0.1 µM) was 108% and the viability, T/C (second compound 3.16 µM, first compound 0.316 µM) was 102%. It also gave a viability, T/C (second compound 3.16 µM, first compound 1 µM) of 114%, a viability, T/C (second compound 3.16 µM, first compound 3.16 µM) of 110% and a viability, T/C (second compound 3.16 µM, first compound 10 µM) of 108%. For the same compound, the viability, T/C (second compound 10 µM, first compound 0.0316 µM) was 106%, the viability, T/C (second compound 10 µM, first compound 0.1 µM) was 102% and the viability, T/C (second compound 10 µM, first compound 0.316 µM) was 110%. The viability, T/C (second compound 10 µM, first compound 1 µM) was 99.7%, the viability, T/C (second compound 10 µM, first compound 3.16 µM) was 97.7% and the viability, T/C (second compound 10 µM, first compound 10 µM) was 57.7%.
